Test results as given in patent US20230295086A1, “NOVEL PSILOCIN DERIVATIVES HAVING PRODRUG PROPERTIES” (COMPASS […], priority 2020, published 2023).
Marks after values point to notes of the source that are not given here.

Experiments:
[1] = molecular target: T1, serotonin 2A (5-HT2A) receptor (Mus musculus, UniProt P35363); experiment: Head twitch response (HTR) in mice; assay type: in vivo, male C57BL/6J mice; conditions: oral gavage 0.3 mg/kg
T1 construct: tissue Charles River UK; host or cells: whole living male C57BL/6J mice (in vivo, oral gavage)

[2] = Pharmacokinetics in the mouse (plasma psilocin); assay type: in vivo, male C57BL/6J mice; conditions: IV, 0.3 mg/kg
Description: 27 male C57BL/6J mice weighing 22-25 g at time of purchase (Charles River UK) were group housed (3 s) in polypropylene cages. Mice were maintained on a normal phase 12 hr light-dark cycle (lights on from 07:00-19:00) with ad libitum access to standard pelleted diet (Envigo 2018) and filtered tap water. The holding room was maintained at 21±4° C. with a relative humidity of 55±15%.
Mice were weighed on the day of dosing and identified by a tail mark using a permanent marker pen. Food was not withdrawn on the day of dosing. […] The remaining animals were divided into two cohorts, with animals in the first cohort receiving a single oral dose of one of the test compounds and animals in the second cohort receiving a single intravenous dose (in a lateral tail vein) of one of the test compounds. Following treatment, animals dosed orally were bled by venesection from the lateral tail vein at 5, 15, 30, 45, 60, 120, and 240 minutes post-dosing. Animals dosed intravenously were bled by venesection from the opposite lateral tail vein at the same timepoints. […] All compounds were formulated in saline and dosed in a volume of 5 ml/kg.
25 μl of blood was collected per animal per timepoint. […] Psilocin levels within samples were determined using LC-MS/MS. All pharmacokinetic parameters were calculated manually. […]

[3] = Shake flask Log D assay (Example 11); assay type: physicochemical; conditions: 1-Octanol / 100 mM PB pH 7.4, shake flask, LC-MS/MS; test compound as hydrochloride
Description: Test and control compounds were diluted to 10 mM in DMSO. 2 μl of each stock solution was aliquoted into tubes in duplicate. 1-Octanol saturated phosphate buffer (PB) (pH 7.4) was prepared by adding 1-Octanol into 100 ml of 100 mM PB (7.4). PB saturated 1-Octanol was prepared by adding 10 ml of 100 mM PB (7.4) into 100 ml of 1-Octanol. 149 μl of each solution was aliquoted into the corresponding tubes. These were then mixed vigorously for 2 minutes and shaken (800 rpm) at room temperature for one hour. The appropriate volume of buffer and 1-Octanol layer samples was aliquoted and diluted, before detection using LC-MS/MS.
Log D was calculated according to the following equation: […]

[4] = Kinetic solubility assay (Example 11); conditions: 50 mM PB pH 7.4, target 200 μM, 24 hours shaking at room temperature, UPLC; test compound as hydrochloride
Description: Test and control compounds were diluted to 10 mM in DMSO and then further diluted 1 in 50 in 50 mM PB (pH 7.4) to a target concentration of 200 μM. Samples were vortexed for at least 2 minutes and then left to shake (800 rpm) at room temperature for 24 hours. Visual appearance was assessed before centrifugation and injection into a UPLC system to measure concentration. […] Each compound was tested in duplicate.

[5] = Stability of psilocin carbonates in 1% HCl; assay type: physicochemical; conditions: 37° C., approximately 26 hours, LC-MS
Description: 4 mg of each test compound was diluted in 2 ml distilled water to give a solution of 2 mg/ml. 2 ml of test compound solutions were then added to 2 ml of 2% (v/v) HCl in distilled water, yielding a final HCl concentration of […] (pH 0.5). Test solutions were incubated at 37° C. with continuous stirring for approximately 26 hours. Concentrations of parent compound and psilocin were analyzed at various timepoints using LC-MS. Concentrations of both parent prodrug and psilocin liberated were expressed relative to the starting concentration of parent prodrug.

Micro shake flask Log D = conditions: Octanol:PBS 1:9, pH 7.4, 10 μM, six replicates; novel compounds as hemifumarate
Description: 6 replicates of each test compound were incubated at 10 μM in a 1:9 ratio of Octanol: PBS at pH 7.4. Following a two hour incubation at room temperature shaking at 600 rpm, the incubation plate was centrifuged for 15 minutes to separate the layers and then two aliquots were removed from the PBS layer. The first was left neat and the second was diluted 10-fold to give dilute samples. Internal standards were added to both the calibration curve and the PBS incubation samples for analysis on LC MS/MS.
All 6 replicates of the neat samples were averaged to give one value for each, with the same calculation performed for the dilute sample values.

[6] = Intake study: serum concentrations after oral ingestion by two volunteers; conditions: for c(Psilocin): study 2
Description: Two volunteers (1 M, 1 F) ingested about 1 mg of each one of P1 and M1 (Study 1) and P2 and M2 (Study 2) in gelatin capsules (exact amounts in Tables 3 and 4). One blood sample was collected prior to ingestion of the substances and served as a zero control. After ingestion samples were collected for about 8 h with increasing time intervals between sample taking (exact protocol in Tables 4 and 5). […] The obtained sera were transferred in plastic tubes and NaF (ca. 30 mg) and ascorbic acid (ca. 5 mg) were added to increase analytes stability.
200 μL serum were spiked with an internal standard solution (10 μL) and ACN (600 μL) was added to precipitate soluble proteins. Before mixing thoroughly ammonium formate (10 M, 200 μL) was added separate the aqueous from the organic phase. After centrifugation (6 min, 4,000×g), 500 μL of the organic phase were transferred into another vial and evaporated to dryness at 40° C. under a gentle stream of nitrogen. Samples were reconstituted in 100 μL mobile phase (A/B, 90/10, v/v) and used for analysis. For quantification a blank sample and a six point calibration (0.5, 1.0, 2.0, 5.0, 10, 20 ng/mL) in calf serum were prepared as described above.
The HPLC-MS system consisted of a Nexera X2 UHPLC system composed of three LC-30AD pumps, a DGU-30A3 degasser, a SIL-30AC autosampler, a CTO-10AS column oven and a CBM-20A controller (Shimadzu, Duisburg, Germany) coupled to a QTRAP 6500plus triple quadrupole linear ion trap mass spectrometer equipped with a TurbolonSpray Interface (Sciex, Darmstadt, Germany). The MS was operated in positive electrospray ionization mode. Data acquisition was performed in scheduled multiple reaction monitoring mode (detection window: 60 s) using Analyst software (version 1.7). MS parameters (declustering potential, entrance potential, collision energy, and collision cell exit potential) were optimized for all substances to obtain the best possible signal intensities (summary of the MRM parameters are given in Table 5). Ion source temperature and ion source voltage were set to 550° C. and +5500 V, respectively. Dwell time was 20 ms for every MRM transition. Curtain gas (N2) pressure was 35 psi, ion source gas 1 and 2 (compressed air) pressure were 50 and 60 psi, respectively, and collision gas (N2) pressure was set to “high.” Chromatographic separation was performed on a Kinetex® biphenyl column (100×2.1 mm, 2.6 μm particle size, Phenomenex, Aschaffenburg, Germany) with a corresponding guard column (SecurityGuard™ ULTRA Cartridges UHPLC Biphenyl for 2.1 mm ID columns, Phenomenex, Aschaffenburg, Germany). The autosampler and the column oven temperature were set to 10° C. and 40° C., respectively. The injection volume was 10 μL.

[7] = serum, oral intake of about 1 mg prodrug, mean of 2 volunteers

T1 sequence (P35363 whole entry): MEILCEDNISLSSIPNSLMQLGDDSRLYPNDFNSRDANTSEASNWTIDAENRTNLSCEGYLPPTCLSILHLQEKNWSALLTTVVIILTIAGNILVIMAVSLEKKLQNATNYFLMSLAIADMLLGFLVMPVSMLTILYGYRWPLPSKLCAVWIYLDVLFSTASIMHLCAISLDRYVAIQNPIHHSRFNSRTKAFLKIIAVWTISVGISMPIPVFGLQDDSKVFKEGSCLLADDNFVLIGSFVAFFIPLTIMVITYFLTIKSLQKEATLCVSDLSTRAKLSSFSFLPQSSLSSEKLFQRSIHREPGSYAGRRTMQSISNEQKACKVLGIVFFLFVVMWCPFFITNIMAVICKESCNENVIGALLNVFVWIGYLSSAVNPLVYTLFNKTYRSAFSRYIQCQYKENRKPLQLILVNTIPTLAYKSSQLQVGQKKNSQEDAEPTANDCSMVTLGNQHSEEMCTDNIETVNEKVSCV

CN(C)CCc1c[nH]c2cccc(OC(=O)OCc3ccccc3)c12 [Psilocin-4-yl-benzylcarbonate, psilocin-4-yl benzyl carbonate]
Mean number of head twitches 0-15 mins ([1]; N = 8): 2.63 | Mean number of head twitches 30-45 mins ([1]; N = 8): 1.88 | Mean number of head twitches 45-60 mins ([1]; N = 8): 1.13 | Mean number of head twitches Total 0-60 mins ([1]; N = 8): 8.2 | Mean number of head twitches 15-30 mins ([1]; N = 8, 0.3 mg/kg): 4.13 | Mean number of head twitches 15-30 mins ([1]; N = 8, listed as Psilocin-4-yl-benylcarbonate, 0.3 mg/kg): of similar magnitude to that induced by psilocybin | Cmax (psilocin) [2]: approximately double that of psilocybin | Mean LogD [3]: 2.19 | Detected concentration [4]: 230 µM

CN(C)CCc1c[nH]c2cccc(OC(=O)OC(C)(C)C)c12 [Psilocin-4-yl-tert-butylcarbonate, psilocin-4-yl tert-butyl carbonate]
Mean number of head twitches 0-15 mins ([1]; N = 8): 3 | Mean number of head twitches 15-30 mins ([1]; N = 8): 2 | Mean number of head twitches 30-45 mins ([1]; N = 8): 1.5 | Mean number of head twitches 45-60 mins ([1]; N = 8): 0.13 | Mean number of head twitches Total 0-60 mins ([1]; N = 8): 6.48 | Degradation of parent compound / conversion to psilocin [5]: rapid and complete chemical degradation to psilocin within approximately four hours | Mean LogD (Micro shake flask Log D): 1.50 | Parent prodrug itself in serum (not detected, LOD) ([6]; serum after oral ingestion of about 1 mg): < 0.07 ng/mL | Cmax of psilocin [6, 7]: 1.13 ± 0.01 ng/mL | Tmax of psilocin [6, 7]: 1.5 ± 0.933 h | elimination constant kel of psilocin [6, 7]: 0.0043 min⁻¹ | elimination half life t1/2 of psilocin [6, 7]: 2.67 h | c(Psilocin) ([6]; serum, test person A, oral P2 0.98 mg salt, 4 min, below LOQ, extrapolated): 0.16* ng/mL | c(Psilocin) ([6]; serum, test person A, oral P2 0.98 mg salt, 12 min, below LOQ, extrapolated): 0.16* ng/mL | c(Psilocin) ([6]; serum, test person A, oral P2 0.98 mg salt, 23 min, below LOQ, extrapolated): 0.21* ng/mL | c(Psilocin) ([6]; serum, test person A, oral P2 0.98 mg salt, 34 min, below LOQ, extrapolated): 0.22* ng/mL | c(Psilocin) ([6]; serum, test person A, oral P2 0.98 mg salt, 50 min): 0.43 ng/mL | c(Psilocin) ([6]; serum, test person A, oral P2 0.98 mg salt, 77 min): 0.57 ng/mL | c(Psilocin) ([6]; serum, test person A, oral P2 0.98 mg salt, 113 min): 0.99 ng/mL | c(Psilocin) ([6]; serum, test person A, oral P2 0.98 mg salt, 130 min): 1.14 ng/mL | c(Psilocin) ([6]; serum, test person A, oral P2 0.98 mg salt, 165 min): 0.96 ng/mL | c(Psilocin) ([6]; serum, test person A, oral P2 0.98 mg salt, 205 min): 0.83 ng/mL | c(Psilocin) ([6]; serum, test person A, oral P2 0.98 mg salt, 270 min): 0.66 ng/mL | c(Psilocin) ([6]; serum, test person A, oral P2 0.98 mg salt, 335 min): 0.47 ng/mL | c(Psilocin) ([6]; serum, test person A, oral P2 0.98 mg salt, 395 min): 0.40 ng/mL | c(Psilocin) ([6]; serum, test person A, oral P2 0.98 mg salt, 458 min, below LOQ, extrapolated): 0.30* ng/mL | c(Psilocin) ([6]; serum, test person B, oral P2 1.05 mg salt, 6 min, below LOQ, extrapolated): 0.24* ng/mL | c(Psilocin) ([6]; serum, test person B, oral P2 1.05 mg salt, 13 min, below LOQ, extrapolated): 0.26* ng/mL | c(Psilocin) ([6]; serum, test person B, oral P2 1.05 mg salt, 22 min): 0.48 ng/mL | c(Psilocin) ([6]; serum, test person B, oral P2 1.05 mg salt, 34 min): 0.75 ng/mL | c(Psilocin) ([6]; serum, test person B, oral P2 1.05 mg salt, 50 min): 1.12 ng/mL | c(Psilocin) ([6]; serum, test person B, oral P2 1.05 mg salt, 77 min): 1.12 ng/mL | c(Psilocin) ([6]; serum, test person B, oral P2 1.05 mg salt, 100 min): 0.92 ng/mL | c(Psilocin) ([6]; serum, test person B, oral P2 1.05 mg salt, 127 min): 0.73 ng/mL | c(Psilocin) ([6]; serum, test person B, oral P2 1.05 mg salt, 165 min): 0.53 ng/mL | c(Psilocin) ([6]; serum, test person B, oral P2 1.05 mg salt, 205 min): 0.51 ng/mL | c(Psilocin) ([6]; serum, test person B, oral P2 1.05 mg salt, 270 min): 0.40 ng/mL | c(Psilocin) ([6]; serum, test person B, oral P2 1.05 mg salt, 331 min): 0.33 ng/mL | c(Psilocin) ([6]; serum, test person B, oral P2 1.05 mg salt, 394 min, below LOQ, extrapolated): 0.30* ng/mL | c(Psilocin) ([6]; serum, test person B, oral P2 1.05 mg salt, 454 min, below LOQ, extrapolated): 0.29* ng/mL
